These results are taken from patent US10538491B2, “4,5-substituted picolinamide and picolinonitrile metabotropic glutamate receptor 2 negative allosteric modulators” (Vanderbilt University, priority 2015, dated 2020).

Each structure is given as a SMILES string.

The term IC50 denotes the concentration that inhibits the measured activity by half. Low readings indicate greater potency, high ones weaker potency.

This assay has as its target rat mGlu2 (Rattus norvegicus (Rat), UniProt P31421). The assay can be described thus: mGlu2 Ca2+ flux assay. The assay is classed as cell-based. As to conditions: for IC50: Gα15 HEK293 cells stably expressing rat mGlu2, glutamate EC80, >10,000 = no plateau, >30,000 = no measurable activity; for remaining activity at 30 µM / rat mGlu2 Glu max: amplitude of response in the presence of 30 μM test compound as percentage of maximal response to glutamate; for remaining activity at 30 µM: read-out: rat mGlu2 Glu max. The method in brief:
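Gα15 HEK293 cells stably expressing rat mGlu2, Fluo-4 loaded; compound added, then glutamate at EC20 after 2.3 min and EC80 afterward, calcium flux read as F/F0. Peak amplitude around EC80 addition normalized to glutamate max; IC50 by unconstrained 4-parameter fit, top concentration 30 μM.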
(A change in cytosolic calcium serves as a functional read-out for many receptors and channels.)

rat mGlu2, sequence (P31421 19-872): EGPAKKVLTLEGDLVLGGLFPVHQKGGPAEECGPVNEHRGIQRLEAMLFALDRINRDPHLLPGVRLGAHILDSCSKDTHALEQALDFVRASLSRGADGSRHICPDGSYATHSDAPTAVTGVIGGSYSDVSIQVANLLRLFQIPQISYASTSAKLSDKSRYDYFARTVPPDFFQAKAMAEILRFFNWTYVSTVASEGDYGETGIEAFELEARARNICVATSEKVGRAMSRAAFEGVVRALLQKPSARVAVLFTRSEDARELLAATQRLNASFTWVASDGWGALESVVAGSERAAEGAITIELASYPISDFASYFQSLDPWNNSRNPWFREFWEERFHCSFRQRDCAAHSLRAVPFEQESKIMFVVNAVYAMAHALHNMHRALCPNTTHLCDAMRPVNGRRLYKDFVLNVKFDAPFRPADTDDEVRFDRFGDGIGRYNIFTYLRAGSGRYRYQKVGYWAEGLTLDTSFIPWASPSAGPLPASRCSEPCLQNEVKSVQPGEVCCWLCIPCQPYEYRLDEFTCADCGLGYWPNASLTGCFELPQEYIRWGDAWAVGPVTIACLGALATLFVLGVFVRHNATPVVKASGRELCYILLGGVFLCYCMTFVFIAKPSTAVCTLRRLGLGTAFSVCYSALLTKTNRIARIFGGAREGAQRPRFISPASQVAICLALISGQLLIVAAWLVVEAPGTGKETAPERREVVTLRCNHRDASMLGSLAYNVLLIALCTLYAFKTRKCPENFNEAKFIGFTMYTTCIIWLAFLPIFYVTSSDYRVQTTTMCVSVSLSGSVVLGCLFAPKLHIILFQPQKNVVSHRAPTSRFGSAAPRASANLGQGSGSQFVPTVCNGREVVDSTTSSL

`CC1(C)CN(Cc2cnc(C(N)=O)cc2-c2ccc(F)cc2)CCO1` [Compound 78, 5-((2,2-dimethylmorpholino)methyl)-4-(4-fluorophenyl)picolinamide]: the midpoint of inhibition, the IC50, lay at 0.531 µM and the remaining activity at 30 µM was -0.32%. The matching figures for `C[C@@H]1CN(Cc2cnc(C(N)=O)cc2-c2ccc(F)cc2)C[C@H](C)O1` [Compound 79, 5-(((cis)-2,6-dimethylmorpholino)methyl)-4-(4-fluorophenyl)picolinamide]: 0.987 µM and 0.52%. The matching figures for `Cn1cc(-c2cc(C(N)=O)ncc2OCc2cc(F)cc(F)c2)cn1` [Compound 80, 5-((3,5-difluorobenzyl)oxy)-4-(1-methyl-1H-pyrazol-4-yl)picolinamide]: 4.13 µM and -0.09%. The like results for `NC(=O)c1cc(-c2ccc(F)cc2)c(OCc2cccc(Br)c2F)cn1` [Compound 81, 5-((3-bromo-2-fluorobenzyl)oxy)-4-(4-fluorophenyl)picolinamide] were, in that order, 1.53 µM and 2.19%.

With `Cn1cc(-c2cc(C(N)=O)ncc2OCc2cccnc2)cn1` [Compound 82, 4-(1-methyl-1H-pyrazol-4-yl)-5-(pyridin-3-ylmethoxy)picolinamide], the IC50 was more than 30 µM. As to `COc1ccc(-c2cc(C(N)=O)ncc2OCc2ccc(C)nc2)c(F)c1` [Compound 83, 4-(2-fluoro-4-methoxyphenyl)-5-((6-methylpyridin-3-yl)methoxy)picolinamide], the concentration for half-maximal inhibition (IC50) came out at 0.216 µM and the remaining activity at 30 µM is 1%. `Cc1ccc(COc2cnc(C(N)=O)cc2-c2ccc(C(F)(F)F)nc2)cn1` [Compound 84, 5′-((6-methylpyridin-3-yl)methoxy)-6-(trifluoromethyl)-[3,4′-bipyridine]-2′-carboxamide]: the IC50 was more than 30 µM. Take `Cc1ccc(COc2cnc(C(N)=O)cc2-c2cnn(C)c2)cn1` [Compound 85, 4-(1-methyl-1H-pyrazol-4-yl)-5-((6-methylpyridin-3-yl)methoxy)picolinamide]: the IC50 was more than 10 µM and the remaining activity at 30 µM is 46.7%. The like results for `COc1ccc(-c2cc(C(N)=O)ncc2OCc2ccc(C(F)(F)F)nc2)c(F)c1` [Compound 86, 4-(2-fluoro-4-methoxyphenyl)-5-((6-(trifluoromethyl)pyridin-3-yl)methoxy)picolinamide] were, in that order, 0.44 µM and 1.16%.

In the case of `Cn1cc(-c2cc(C(N)=O)ncc2OCc2ccc(C(F)(F)F)nc2)cn1` [Compound 87, 4-(1-methyl-1H-pyrazol-4-y1)-5-((6-(trifluoromethyl)pyridin-3-yl)methoxy)picolinamide], the IC50 is more than 10 µM and the “rat mGlu2 Glu max” value was 29.69%. Consider `COc1ccc(-c2cc(C(N)=O)ncc2OCc2ccnc(C)c2)c(F)c1` [Compound 88, 4-(2-fluoro-4-methoxyphenyl)-5-((2-methylpyridin-4-yl)methoxy)picolinamide], for which half-maximal inhibition (IC50) was put at 0.029 ± 0.005 µM and the remaining activity at 30 µM was 1.65 ± 0.23%. The like results for `Cc1cc(COc2cnc(C(N)=O)cc2-c2cnn(C)c2)ccn1` [Compound 89, 4-(1-methyl-1H-pyrazol-4-yl)-5-((2-methylpyridin-4-yl)methoxy)picolinamide] were, in that order, more than 10 µM and 30.7%.

As for `NC(=O)c1cc(-c2ccc(F)cc2)c(COc2cc(F)cc(F)c2)cn1` [Compound 90, 5-((3,5-difluorophenoxy)methyl)-4-(4-fluorophenyl)picolinamide], the IC50 was found to be 2.03 µM and the remaining activity at 30 µM was 0.21%.

With `NC(=O)c1cc(-c2ccc(F)cc2)c(COc2ccc(C(F)(F)F)nc2)cn1` [Compound 91, 4-(4-fluorophenyl)-5-(((6-(trifluoromethyl)pyridin-3-yl)oxy)methyl)picolinamide], the half-inhibitory concentration (IC50) worked out at 0.639 µM and the remaining activity at 30 µM worked out at 0.51%. The like results for `Cc1ccc(OCc2cnc(C(N)=O)cc2-c2ccc(F)cc2)cn1` [Compound 92, 4-(4-fluorophenyl)-5-(((6-methylpyridin-3-yl)oxy)methyl)picolinamide] were, in that order, 1.66 µM and -2.16%. The matching figures for `NC(=O)c1cc(-c2ccc(F)cc2)c(COc2ccnc(C(F)(F)F)c2)cn1` [Compound 93, 4-(4-fluorophenyl)-5-(((2-(trifluoromethyl)pyridin-4-yl)oxy)methyl)picolinamide]: 0.477 µM and 0.38%. The like results for `NC(=O)c1cc(-c2ccc(F)cc2)c(OCCN2CCOCC2)cn1` [Compound 94, 4-(4-fluorophenyl)-5-(2-morpholinoethoxy)picolinamide] were, in that order, more than 10 µM and 49%.

For `C[C@@H]1CN(CCOc2cnc(C(N)=O)cc2-c2ccc(F)cc2)C[C@H](C)O1` [Compound 95, 5-(2-((cis)-2,6-dimethylmorpholino)ethoxy)-4-(4-fluorophenyl)picolinamide], the half-inhibitory concentration (IC50) is more than 10 µM and the remaining activity at 30 µM turned out to be 22.8%.

Consider `NC(=O)c1cc(-c2ccc(F)cc2)c(OCCCN2CCC(F)(F)CC2)cn1` [Compound 96, 5-(3-(4,4-difluoropiperidin-1-yl)propoxy)-4-(4-fluorophenyl)picolinamide], for which 3.27 µM corresponded to half-maximal inhibition (IC50) and the remaining activity at 30 µM was 7.38%.

Regarding `CC1CN(CCCOc2cnc(C(N)=O)cc2-c2ccc(F)cc2)CCO1` (centres unmarked) [Compound 97, 4-(4-fluorophenyl)-5-(3-(2-methylmorpholino)propoxy)picolinamide], the IC50 is more than 10 µM and the remaining activity at 30 µM came out at 22%.

As for `CC1(C)CN(CCCOc2cnc(C(N)=O)cc2-c2ccc(F)cc2)CCO1` [Compound 98, 5-(3-(2,2-dimethylmorpholino)propoxy)-4-(4-fluorophenyl)picolinamide], the IC50 is 3.25 µM and the remaining activity at 30 µM was determined as 0.97%.

In the case of `C[C@@H]1CN(CCCOc2cnc(C(N)=O)cc2-c2ccc(F)cc2)C[C@H](C)O1` [Compound 99, 5-(3-((cis)-2,6-dimethylmorpholino)propoxy)-4-(4-fluorophenyl)picolinamide], the IC50 is more than 10 µM and the remaining activity at 30 µM is 15.8%. As to `NC(=O)c1cc(-c2ccc(F)cc2)c(OCCCN2CCOCC2)cn1` [Compound 100, 4-(4-fluorophenyl)-5-(3-morpholinopropoxy)picolinamide], the IC50 was more than 10 µM and the remaining activity at 30 µM came out at 46.8%. For `NC(=O)c1cc(-c2ccc(F)cc2)c(OCCOc2cc(Br)ccc2F)cn1` [Compound 101, 5-(2-(5-bromo-2-fluorophenoxy)ethoxy)-4-(4-fluorophenyl)picolinamide], the IC50 is 4.26 µM and the remaining activity at 30 µM worked out at 1.85%.

For `NC(=O)c1cc(-c2ccc(F)cc2)c(OCCOc2cc(F)cc(Br)c2)cn1` [Compound 102, 5-(2-(3-bromo-5-fluorophenoxy)ethoxy)-4-(4-fluorophenyl)picolinamide], inhibition was half-maximal at 5.24 µM (IC50) and the remaining activity at 30 µM was 3.34%. The matching figures for `NC(=O)c1cc(-c2ccc(F)cc2)c(OCCOc2ccc(F)c(Br)c2)cn1` [Compound 103, 5-(2-(3-bromo-4-fluorophenoxy)ethoxy)-4-(4-fluorophenyl)picolinamide]: more than 10 µM and 53.7%. As to `NC(=O)c1cc(-c2ccc(F)cc2)c(OCCOc2cccc(Br)c2F)cn1` [Compound 104, 5-(2-(3-bromo-2-fluorophenoxy)ethoxy)-4-(4-fluorophenyl)picolinamide], the concentration for half-maximal inhibition (IC50) is more than 30 µM.

In turn, `NC(=O)c1cc(-c2ccc(F)cc2)c(OCCOc2ccccc2Br)cn1` [Compound 105, 5-(2-(2-bromophenoxy)ethoxy)-4-(4-fluorophenyl)picolinamide] showed an IC50 of more than 30 µM. Regarding `NC(=O)c1cc(-c2ccc(F)cc2)c(OCCOc2cccc(Br)c2)cn1` [Compound 106, 5-(2-(3-bromophenoxy)ethoxy)-4-(4-fluorophenyl)picolinamide], half-maximal inhibition (IC50) required 3.44 µM and the remaining activity at 30 µM was found to be 26.5%. In addition, the NAM designation entry (concentration-dependent decrease in the glutamate EC80 response) was “(Partial NAM)”.

For the compound `NC(=O)c1cc(-c2ccc(F)cc2)c(OCCOc2ccc(F)cc2)cn1` [Compound 107, 5-(2-(4-fluorophenoxy)ethoxy)-4-(4-fluorophenyl)picolinamide], the half-maximal inhibitory concentration (IC50) came out at 8.51 µM and the remaining activity at 30 µM was -10.7%.

In the case of `NC(=O)c1cc(-c2ccc(F)cc2)c(OCCOc2cccc(F)c2)cn1` [Compound 108, 5-(2-(3-fluorophenoxy)ethoxy)-4-(4-fluorophenyl)picolinamide], half-maximal inhibition (IC50) required 2.38 µM and the remaining activity at 30 µM worked out at 1.95%. Turning to `NC(=O)c1cc(-c2ccc(F)cc2)c(OCCOc2ccccc2F)cn1` [Compound 109, 5-(2-(2-fluorophenoxy)ethoxy)-4-(4-fluorophenyl)picolinamide], the remaining activity at 30 µM turned out to be 2.16%. On to `NC(=O)c1cc(-c2ccc(F)cc2)c(OCCOc2cc(F)cc(F)c2)cn1` [Compound 110, 5-(2-(3,5-difluorophenoxy)ethoxy)-4-(4-fluorophenyl)picolinamide], for which the IC50 was determined as 1.72 µM and the remaining activity at 30 µM was 38.7%. The like results for `NC(=O)c1cc(-c2ccc(F)cc2)c(OCCOc2cncc(Br)c2)cn1` [Compound 111, 5-(2-((5-bromopyridin-3-yl)oxy)ethoxy)-4-(4-fluorophenyl)picolinamide] were, in that order, 0.624 µM and 1.34%. On to `NC(=O)c1cc(-c2ccc(F)cc2)c(OCCOc2cncc(F)c2)cn1` [Compound 112], for which the IC50 was found to be 0.827 µM and the “rat mGlu2 Glu max” value is on record as 0.05%.

Consider `NC(=O)c1cc(-c2ccc(F)cc2)c(OCCOc2ccc(F)nc2)cn1` [Compound 113], for which the IC50 was found to be 0.502 µM and the “rat mGlu2 Glu max” value was 1.38 (n = 2) %.
